Assay results published in ChEMBL document CHEMBL1201862, “PubChem BioAssay data set” (2004).
The source made the active and inactive calls.

Experiments:
Mucolipin-3 = Mucolipin-3 (Homo sapiens, UniProt Q8TDD5); assay: Dose response cell-based high-throughput screening assay for agonists of the transient receptor potential channel ML3 (TRPML3). [Related pubchem assays: 1526, 1424, 1448 ]; format: functional
Ion channel NompC = Ion channel NompC (Danio rerio, UniProt Q7T1G6); assay: Fluorescence counterscreen assay for TRPML3 agonists: dose response cell-based high-throughput screening assay to identify agonists of the transient receptor potential channel N1 (TRPN1). [Related pubchem assays: 1526, 1424, 1448 ]; format: functional
Sequence of Ion channel NompC (Q7T1G6 whole entry): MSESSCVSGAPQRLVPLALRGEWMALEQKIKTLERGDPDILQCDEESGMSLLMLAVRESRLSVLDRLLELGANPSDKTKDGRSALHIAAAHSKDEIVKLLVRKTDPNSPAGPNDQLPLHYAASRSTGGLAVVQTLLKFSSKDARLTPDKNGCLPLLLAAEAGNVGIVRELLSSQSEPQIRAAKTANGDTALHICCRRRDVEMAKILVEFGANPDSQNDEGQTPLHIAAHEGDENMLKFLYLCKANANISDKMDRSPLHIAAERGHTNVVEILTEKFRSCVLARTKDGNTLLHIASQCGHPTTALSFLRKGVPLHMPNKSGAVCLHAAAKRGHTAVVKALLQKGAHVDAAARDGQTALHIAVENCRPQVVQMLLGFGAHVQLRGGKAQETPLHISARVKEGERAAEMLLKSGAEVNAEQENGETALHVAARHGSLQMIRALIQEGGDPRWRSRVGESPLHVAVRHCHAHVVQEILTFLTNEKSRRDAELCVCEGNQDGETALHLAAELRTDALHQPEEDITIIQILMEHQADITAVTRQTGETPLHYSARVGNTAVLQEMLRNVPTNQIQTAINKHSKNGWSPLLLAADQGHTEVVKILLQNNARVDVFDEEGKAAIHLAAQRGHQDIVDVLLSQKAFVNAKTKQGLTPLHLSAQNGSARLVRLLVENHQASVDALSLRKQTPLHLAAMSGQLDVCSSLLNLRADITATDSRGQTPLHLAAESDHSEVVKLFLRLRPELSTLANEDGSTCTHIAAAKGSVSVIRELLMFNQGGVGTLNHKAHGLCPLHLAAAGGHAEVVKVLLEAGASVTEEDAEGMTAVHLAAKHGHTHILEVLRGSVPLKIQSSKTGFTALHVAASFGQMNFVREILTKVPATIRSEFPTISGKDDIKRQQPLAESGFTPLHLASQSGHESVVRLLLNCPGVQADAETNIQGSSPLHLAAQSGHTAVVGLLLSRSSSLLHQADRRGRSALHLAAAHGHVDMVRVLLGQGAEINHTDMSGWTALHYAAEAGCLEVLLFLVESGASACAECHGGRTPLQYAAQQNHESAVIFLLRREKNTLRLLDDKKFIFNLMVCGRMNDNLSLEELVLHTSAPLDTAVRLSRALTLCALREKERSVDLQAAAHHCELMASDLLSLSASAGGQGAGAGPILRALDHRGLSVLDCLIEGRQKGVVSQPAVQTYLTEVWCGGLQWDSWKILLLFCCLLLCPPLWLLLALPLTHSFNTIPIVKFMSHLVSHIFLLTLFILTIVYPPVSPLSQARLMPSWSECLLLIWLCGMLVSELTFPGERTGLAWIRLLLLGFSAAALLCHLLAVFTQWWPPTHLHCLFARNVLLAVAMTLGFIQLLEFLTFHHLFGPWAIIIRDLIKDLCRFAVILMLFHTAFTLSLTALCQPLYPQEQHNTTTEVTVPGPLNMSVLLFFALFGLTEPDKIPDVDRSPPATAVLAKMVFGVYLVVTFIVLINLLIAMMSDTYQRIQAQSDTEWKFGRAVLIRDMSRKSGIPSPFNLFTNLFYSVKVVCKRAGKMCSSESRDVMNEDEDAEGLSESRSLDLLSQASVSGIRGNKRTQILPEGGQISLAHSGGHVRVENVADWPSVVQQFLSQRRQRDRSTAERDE

[1] = tested on: Streptococcus sp. 'group A'; assay: growth inhibition of control SK(-) GAS strain, dose response, counter-screen for streptokinase expression inhibitor project, luminescence, kanamycin, BacTiterGlo, confirmation (AID 1900); format: functional, organism-based
Vero = assay: cells; format: functional; details: Chlorocebus sabaeus
[2] = biological target: T1, Short transient receptor potential channel 4 (Mus musculus, UniProt Q9QUQ5); assay: mouse TRPC4 channel activators, dose response, cell-based, HEK293 TRPC4/mu-opioid, Fluo-4 calcium (AID 434937); format: functional
T1 sequence (Q9QUQ5 whole entry): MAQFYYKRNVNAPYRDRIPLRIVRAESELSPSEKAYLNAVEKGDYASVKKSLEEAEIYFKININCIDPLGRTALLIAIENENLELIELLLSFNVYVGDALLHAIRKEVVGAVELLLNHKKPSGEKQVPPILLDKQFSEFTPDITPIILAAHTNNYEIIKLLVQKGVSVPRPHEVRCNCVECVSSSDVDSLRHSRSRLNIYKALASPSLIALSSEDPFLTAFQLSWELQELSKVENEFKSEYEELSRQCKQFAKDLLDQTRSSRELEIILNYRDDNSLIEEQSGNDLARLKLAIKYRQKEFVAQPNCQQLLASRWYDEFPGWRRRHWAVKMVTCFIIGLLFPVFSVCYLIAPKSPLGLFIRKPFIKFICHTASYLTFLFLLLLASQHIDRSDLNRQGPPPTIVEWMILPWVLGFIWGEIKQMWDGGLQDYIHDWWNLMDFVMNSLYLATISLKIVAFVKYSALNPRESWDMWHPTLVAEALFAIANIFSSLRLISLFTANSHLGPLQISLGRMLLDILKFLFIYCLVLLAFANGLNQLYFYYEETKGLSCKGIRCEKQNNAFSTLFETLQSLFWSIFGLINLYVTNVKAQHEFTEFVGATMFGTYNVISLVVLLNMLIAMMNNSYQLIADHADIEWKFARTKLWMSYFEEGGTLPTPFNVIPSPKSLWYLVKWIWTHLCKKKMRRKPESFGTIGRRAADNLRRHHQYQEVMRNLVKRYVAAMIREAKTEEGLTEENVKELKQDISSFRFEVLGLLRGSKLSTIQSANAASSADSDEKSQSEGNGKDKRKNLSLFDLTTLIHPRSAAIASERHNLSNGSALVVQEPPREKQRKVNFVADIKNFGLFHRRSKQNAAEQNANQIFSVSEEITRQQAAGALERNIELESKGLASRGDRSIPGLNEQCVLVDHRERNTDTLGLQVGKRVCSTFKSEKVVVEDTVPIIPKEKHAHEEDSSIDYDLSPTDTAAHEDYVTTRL

Streptococcus = assay: Group A Streptococcus viability loss, dose response, counter-screen for streptokinase expression inhibitor project, luminescence, BacTiterGlo (AID 1915); format: functional, organism-based;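 also: potency for reduction of bacterial viability or growth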
[3] = biological target: Acyl-homoserine lactone acylase PvdQ (Pseudomonas aeruginosa (strain LESB58), UniProt Q9I194); assay: P. aeruginosa PvdQ acylase inhibitors, dose response, biochemical, fluorescence, plate reader and imaging, cherry-picks (AID 493231)
Sequence of Acyl-homoserine lactone acylase PvdQ (Q9I194 24-193 limits assumed): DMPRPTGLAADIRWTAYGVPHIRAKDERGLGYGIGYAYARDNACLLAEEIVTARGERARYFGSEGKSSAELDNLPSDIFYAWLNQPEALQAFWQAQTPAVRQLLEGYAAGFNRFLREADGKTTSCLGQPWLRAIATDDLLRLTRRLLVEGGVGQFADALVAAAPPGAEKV
Sequence of Acyl-homoserine lactone acylase PvdQ (Q9I194 217-762 limits assumed): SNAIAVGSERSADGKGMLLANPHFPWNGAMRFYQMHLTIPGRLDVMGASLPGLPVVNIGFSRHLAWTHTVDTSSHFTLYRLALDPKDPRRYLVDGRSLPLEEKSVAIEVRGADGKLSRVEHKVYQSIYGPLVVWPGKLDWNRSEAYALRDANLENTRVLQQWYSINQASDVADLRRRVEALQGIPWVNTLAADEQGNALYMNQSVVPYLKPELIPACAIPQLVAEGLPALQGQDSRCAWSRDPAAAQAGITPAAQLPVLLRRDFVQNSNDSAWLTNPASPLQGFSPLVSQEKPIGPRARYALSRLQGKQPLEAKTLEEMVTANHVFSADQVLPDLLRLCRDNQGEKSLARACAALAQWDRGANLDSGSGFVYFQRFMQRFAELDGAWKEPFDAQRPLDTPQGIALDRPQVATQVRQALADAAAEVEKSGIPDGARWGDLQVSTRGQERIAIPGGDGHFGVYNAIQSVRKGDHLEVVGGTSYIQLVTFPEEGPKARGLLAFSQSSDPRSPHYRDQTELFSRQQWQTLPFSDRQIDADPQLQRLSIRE

[4] = biological target: Eukaryotic translation initiation factor 4H (Homo sapiens, UniProt Q15056); assay: human eIF4H binding inhibitors, primary screen, translation initiation inhibitor project, biochemical, uHTS, fluorescence polarization (AID 2012)
[5] = biological target: T2, Carboxy-terminal domain RNA polymerase II polypeptide A small phosphatase 1 (Homo sapiens, UniProt Q9GZU7); assay: inhibitors of CTDSP1, concentration-response testing, biochemical assay, absorbance-based, actives from ultra-high-throughput screening (AID 540297); format: functional
T2 sequence (Q9GZU7 whole entry): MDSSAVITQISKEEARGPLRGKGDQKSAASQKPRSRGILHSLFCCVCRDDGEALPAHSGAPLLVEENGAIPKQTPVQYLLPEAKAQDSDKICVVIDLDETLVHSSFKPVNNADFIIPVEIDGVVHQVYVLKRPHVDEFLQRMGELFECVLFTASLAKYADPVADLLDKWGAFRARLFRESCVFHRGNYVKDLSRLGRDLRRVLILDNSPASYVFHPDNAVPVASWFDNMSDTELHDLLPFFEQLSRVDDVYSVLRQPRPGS

[6] = biological target: Polyadenylate-binding protein 1 (Homo sapiens, UniProt P11940); assay: PABP poly(A) RNA binding inhibitors, primary screen, biochemical, fluorescence polarization, uHTS (AID 2014)
[7] = biological target: Lysosomal acid glucosylceramidase (Homo sapiens, UniProt P04062); assay: Dose response cell-based high throughput screening assay to identify enhancers of beta-glucosidase activity. [Related pubchem assays: 784 ]; format: functional
Sequence of Lysosomal acid glucosylceramidase (P04062 whole entry): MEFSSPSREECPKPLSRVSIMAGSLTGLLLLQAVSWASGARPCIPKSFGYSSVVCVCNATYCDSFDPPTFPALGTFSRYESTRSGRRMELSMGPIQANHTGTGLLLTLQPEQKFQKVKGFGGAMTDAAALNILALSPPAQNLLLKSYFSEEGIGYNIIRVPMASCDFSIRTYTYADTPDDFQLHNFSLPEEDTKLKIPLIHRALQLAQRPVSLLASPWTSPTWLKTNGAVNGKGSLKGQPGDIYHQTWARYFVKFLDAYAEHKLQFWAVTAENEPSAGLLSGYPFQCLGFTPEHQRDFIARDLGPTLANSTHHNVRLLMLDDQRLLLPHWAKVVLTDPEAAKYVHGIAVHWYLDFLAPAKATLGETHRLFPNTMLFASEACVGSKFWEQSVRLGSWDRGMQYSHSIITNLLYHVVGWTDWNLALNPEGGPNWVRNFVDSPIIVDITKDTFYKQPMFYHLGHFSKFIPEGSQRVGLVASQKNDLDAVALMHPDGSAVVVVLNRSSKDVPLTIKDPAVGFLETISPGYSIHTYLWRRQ

SUMO-activating enzyme [8] = biological target: T3, SUMO-activating enzyme (Homo sapiens, UniProt Q9UBT2); assay: SUMOylation inhibitor hit validation, confirmation, SUMOylation inhibitor project, biochemical, AlphaScreen (AID 2018); format: functional
T3 sequence (Q9UBE0 whole entry): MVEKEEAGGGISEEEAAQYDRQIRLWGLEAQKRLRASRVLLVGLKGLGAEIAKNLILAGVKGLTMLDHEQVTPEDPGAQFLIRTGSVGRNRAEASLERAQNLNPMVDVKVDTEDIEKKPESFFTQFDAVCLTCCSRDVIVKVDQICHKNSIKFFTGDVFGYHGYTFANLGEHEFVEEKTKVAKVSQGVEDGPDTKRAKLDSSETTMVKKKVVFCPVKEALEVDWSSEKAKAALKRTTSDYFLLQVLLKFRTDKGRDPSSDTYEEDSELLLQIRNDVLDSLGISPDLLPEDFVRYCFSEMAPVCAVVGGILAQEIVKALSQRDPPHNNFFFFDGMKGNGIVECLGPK
T3 sequence (Q9UBT2 whole entry): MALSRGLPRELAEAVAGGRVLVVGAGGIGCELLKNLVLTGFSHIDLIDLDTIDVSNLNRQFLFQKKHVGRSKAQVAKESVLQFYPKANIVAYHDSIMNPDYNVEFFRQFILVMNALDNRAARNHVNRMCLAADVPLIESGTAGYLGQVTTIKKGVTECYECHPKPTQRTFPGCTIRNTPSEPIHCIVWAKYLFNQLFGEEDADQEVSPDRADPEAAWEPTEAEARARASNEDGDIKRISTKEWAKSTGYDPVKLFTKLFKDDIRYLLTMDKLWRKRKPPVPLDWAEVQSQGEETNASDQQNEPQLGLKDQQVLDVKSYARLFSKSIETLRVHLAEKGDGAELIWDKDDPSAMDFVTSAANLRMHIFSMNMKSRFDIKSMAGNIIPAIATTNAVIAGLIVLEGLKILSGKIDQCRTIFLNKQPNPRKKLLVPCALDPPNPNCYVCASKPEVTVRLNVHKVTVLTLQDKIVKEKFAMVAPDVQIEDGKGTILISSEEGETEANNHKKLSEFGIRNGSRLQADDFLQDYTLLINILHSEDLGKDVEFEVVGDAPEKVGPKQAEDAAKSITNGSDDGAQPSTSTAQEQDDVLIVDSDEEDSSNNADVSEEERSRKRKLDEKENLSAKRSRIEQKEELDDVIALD

SUMO-activating enzyme [9] = biological target: T3, SUMO-activating enzyme; assay: inhibitors of in vitro SUMOylation cascade, primary screen, biochemical, HTRF, uHTS (AID 2006); format: protein-complex assay
Bcl-2-like protein 10 = Bcl-2-like protein 10 (Homo sapiens, UniProt Q9HD36); assay: displacers of TR3 peptide from Bcl-B, primary screen, selectivity assay for Bfl-1 inhibitor project, biochemical, fluorescence polarization, FITC-TR3 peptide (AID 748);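 also: fluorescence polarization from a fluorescein-labelled TR3 peptide binding purified Bcl-B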
Sequence of Bcl-2-like protein 10 (Q9HD36 whole entry): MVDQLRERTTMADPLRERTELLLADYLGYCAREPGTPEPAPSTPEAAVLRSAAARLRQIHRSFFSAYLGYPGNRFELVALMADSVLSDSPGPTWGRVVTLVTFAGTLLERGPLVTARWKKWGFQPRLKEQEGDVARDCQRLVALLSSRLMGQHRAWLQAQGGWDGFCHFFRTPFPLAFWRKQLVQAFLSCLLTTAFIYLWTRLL

Coagulation factor XII = biological target: T4, Coagulation factor XII (Homo sapiens, UniProt P00748); format: functional;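 also: activated factor XIIa alpha cleaving a fluorogenic AMC peptide substrate; inhibitor potency from loss of enzyme activity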
T4 sequence (P00748 whole entry): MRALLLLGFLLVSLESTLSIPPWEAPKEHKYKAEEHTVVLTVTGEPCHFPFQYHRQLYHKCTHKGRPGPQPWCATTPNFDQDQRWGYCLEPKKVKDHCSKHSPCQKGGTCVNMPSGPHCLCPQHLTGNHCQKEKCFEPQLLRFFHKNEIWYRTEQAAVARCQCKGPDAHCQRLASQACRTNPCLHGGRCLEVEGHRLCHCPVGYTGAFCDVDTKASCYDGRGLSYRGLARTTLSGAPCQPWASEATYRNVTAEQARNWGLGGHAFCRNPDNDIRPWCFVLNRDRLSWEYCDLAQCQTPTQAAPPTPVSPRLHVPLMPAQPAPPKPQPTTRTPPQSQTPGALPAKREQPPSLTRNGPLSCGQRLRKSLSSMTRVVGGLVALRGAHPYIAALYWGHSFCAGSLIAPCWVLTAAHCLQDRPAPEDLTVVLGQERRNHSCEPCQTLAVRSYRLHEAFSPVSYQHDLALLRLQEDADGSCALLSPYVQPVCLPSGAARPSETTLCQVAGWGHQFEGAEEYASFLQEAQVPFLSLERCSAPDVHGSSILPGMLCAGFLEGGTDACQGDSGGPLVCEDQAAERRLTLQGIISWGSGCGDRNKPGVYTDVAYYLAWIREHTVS

Sequence of Mucolipin-3 (Q8TDD5 whole entry): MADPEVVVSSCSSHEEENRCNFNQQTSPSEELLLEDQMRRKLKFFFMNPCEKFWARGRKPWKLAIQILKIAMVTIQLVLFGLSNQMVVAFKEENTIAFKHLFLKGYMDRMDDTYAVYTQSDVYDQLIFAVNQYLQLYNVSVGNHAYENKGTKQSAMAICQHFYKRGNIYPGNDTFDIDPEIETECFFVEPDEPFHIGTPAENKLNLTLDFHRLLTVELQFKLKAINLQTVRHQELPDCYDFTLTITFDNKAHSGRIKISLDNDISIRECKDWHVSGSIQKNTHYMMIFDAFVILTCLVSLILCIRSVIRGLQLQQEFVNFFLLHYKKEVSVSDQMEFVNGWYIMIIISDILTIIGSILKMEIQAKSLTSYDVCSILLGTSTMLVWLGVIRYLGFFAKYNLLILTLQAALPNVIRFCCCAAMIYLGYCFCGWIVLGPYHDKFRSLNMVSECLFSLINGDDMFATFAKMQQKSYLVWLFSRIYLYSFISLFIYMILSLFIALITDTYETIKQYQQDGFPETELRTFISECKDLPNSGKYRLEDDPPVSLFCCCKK

In the case of `COc1ccc(C(=O)NC(=S)NNC(=O)c2c(-c3ccccc3)noc2C)cc1OC`, the EC50 (Mucolipin-3) is reported as 7.51 µM (active), the EC50 (Ion channel NompC) is reported as 7.42 µM (active) and the EC50 [1] is reported as 0.62 µM (active). The CC50 (Vero) was 17.2 µM (active), the EC50 [2] was 6.68 µM (active) and the EC50 (Streptococcus) was 7.7 µM (active).

With `C[C@]12CCC[C@H](O1)[C@H]([C@@H](O)c1ccccc1)O2` the AC50 [3] was 54 µM (active).

`C[N+]1(CC2COC3(CCCCC3)O2)CCCCC1` (configuration not stated) was tested, and the IC50 [4] was > 100 µM (inactive), the IC50 [5] was 8.39 µM (active) and the IC50 [6] was 6.05 µM (active).

With `CCOC(=O)C1CCN(C(=O)c2ccc(NC(=O)C3CCCO3)cc2)CC1` (configuration not stated) the EC50 [7] was > 50 µM (not active).

For `CN(C)c1cccc(C(=O)OCc2cc(=O)oc3cc(O)ccc23)c1`, the IC50 (SUMO-activating enzyme [8]) was 5.73 µM (active), the IC50 (SUMO-activating enzyme [9]) was 22.6 µM (active) and the IC50 (Bcl-2-like protein 10) was 62.4 µM (inactive).

`Cc1ccccc1NC(=O)Nc1cccs1` was tested, and the EC50 [7] was > 50 µM (not active).

With `Cc1ccc(S(=O)(=O)NCC(=O)OCC(=O)Nc2ncc(Cl)cc2Cl)cc1` the IC50 (Bcl-2-like protein 10) was 71.1 µM (inactive) and the IC50 (Coagulation factor XII) was > 50 µM (inactive).
